Reference: the NIST ThermoML archive (doi:10.1021/je0501484)
Numbers after ± are expanded uncertainties.

Assay: mn = molality of the nth substance listed, in mol/kg
Conditions: 101 kPa, Liquid

## CCCCCC(=O)[O-].[Na+] [sodium hexanoate] + O
298.15 K, m1 = 0.5
  mass density: 1014.4 ± 0.87 kg/m3
  viscosity: 1.212 ± 0.027 mPa·s
298.15 K, m1 = 1
  mass density: 1029.41 ± 1 kg/m3
  viscosity: 1.607 ± 0.035 mPa·s
298.15 K, m1 = 1.5
  mass density: 1041.88 ± 1.2 kg/m3
  viscosity: 2.102 ± 0.045 mPa·s
298.15 K, m1 = 2.177
  mass density: 1054.22 ± 1.3 kg/m3
  viscosity: 3.187 ± 0.068 mPa·s
308.15 K, m1 = 0.5
  mass density: 1010.74 ± 0.85 kg/m3
  viscosity: 0.956 ± 0.021 mPa·s
308.15 K, m1 = 1
  mass density: 1024.96 ± 1 kg/m3
  viscosity: 1.24 ± 0.027 mPa·s
308.15 K, m1 = 1.5
  mass density: 1036.7 ± 1.1 kg/m3
  viscosity: 1.601 ± 0.035 mPa·s
308.15 K, m1 = 2.177
  mass density: 1048.72 ± 1.3 kg/m3
  viscosity: 2.402 ± 0.052 mPa·s
